The record followed here is the Deep4Chem optical property database.

The nature of the data set: solvent given as SMILES.

`Cc1cc(C(F)(F)F)nc2c1ccc1nc(-c3ccc(Cl)cc3)cn12`: the absorption maximum is, setting by setting: (in CC#N) 362.6 nm; (in CCCCCC) 376.5 nm; (in CCCCOC(C)=O) 368.6 nm; (in CCOC(C)=O) 368.2 nm; (in CO) 359.6 nm; (in Cc1ccccc1) 375.2 nm. Also, the absorption maximum was found to be 369.2 nm (in ClC(Cl)Cl), 366.6 nm (in ClCCl) and 375 nm (in c1ccccc1).

`N#CC(C#N)=Cc1ccc2c(c1)c1ccccc1n2-c1cccc2ccccc12`: the absorption maximum (in ClCCl) was found to be 404 nm.

Turning to `N#CC1=C(c2ccc(-c3cccs3)s2)CCC1`, the absorption maximum reads like this: (in C1CCOC1) 364 nm; (in CC#N) 362 nm; (in CCCCCC) 360 nm; (in CCO) 366 nm; (in OCCOCCO) 367 nm; (in c1ccncc1) 368 nm.

Molecule `COc1cc2c(cc1-c1ccsc1)Cc1c3c(c4c(c1-2)-c1cc(OC)c(-c2ccsc2)cc1C4)C(=O)N(CCC(C)C)C3=O` came in with an absorption maximum (in C1CCOC1) of 417 nm.

In the case of `Nc1cc2nc3cc(F)c(F)cc3nc2cc1N`, the absorption maximum (in CCO) worked out at 433 nm.

Regarding `N#Cc1c(N2CCCCC2)cc(-c2ccc(-c3ccccc3)cc2)c2c1CCc1ccccc1-2`, the absorption maximum (in C1CCOC1) came out at 332 nm.

In the case of `CC1(C)C(/C=C/c2cc3ccc(O)cc3oc2=O)=[N+](CCCS(=O)(=O)[O-])c2ccc(S(=O)(=O)O)cc21`, the absorption maximum is, setting by setting: (in CCO) 630 nm; (in CS(C)=O) 485 nm; (in O) 573 nm.

For the setting “in Cc1ccccc1”, `CC(C)(C)c1ccc2c(c1)c1cc(C(C)(C)C)ccc1n2-c1cc(C(=O)c2ccccn2)cc(-n2c3ccc(C(C)(C)C)cc3c3cc(C(C)(C)C)ccc32)c1` displayed an absorption maximum of 394 nm.

With `CCCCCCN1C(=O)c2cccc3c(-c4ccc(-c5cc(-c6ccc(Cl)cc6)n(-c6ccccc6)n5)s4)ccc(c23)C1=O`, the absorption maximum (in ClCCl) stood at 402 nm.

The molecule `COc1ccc2cc(-c3ccccc3CC#N)c(=O)oc2c1` returned an absorption maximum (in ClC(Cl)Cl) of 336 nm.

In the case of `O=C1/C(=C2\Nc3cc4ccc5cccc6ccc(c3C2=O)c4c56)Nc2cc3ccc4cccc5ccc(c21)c3c45`, the absorption maximum (in C1CCOC1) amounted to 687 nm.

On to `CC1=[N+]2C(=C(c3ccc(Br)cc3)c3ccc(C)n3[B-]2(F)F)C=C1c1cc2n(c1)[B-](F)(F)[N+]1=CC=CC1=C2c1c(C)cc(C)cc1C`, for which the absorption maximum by setting is: (in C1CCCCC1) 598.5 nm; (in CCOC(C)=O) 601.5 nm.

With `COc1ccc(-n2nc(C#N)c(N3CCC(N4CCCCC4)CC3)n2)cc1`, where the note is “in CC#N”, the absorption maximum is 325 nm.

For the setting “in ClC(Cl)Cl”, `N#Cc1ccc(-c2cc(-c3ccc(N4CCCC4)cc3)nc(-c3ccccc3)n2)cc1` had an absorption maximum of 385 nm.

In turn, `C[Si]1(C)C(c2ccccc2)=Cc2ccccc21` came in with an absorption maximum (in ClCCl) of 333 nm.

As for `Nc1ncc2nc[nH]c2n1`, the absorption maximum (in O) is reported as 290 nm.

Turning to `COc1c2ccccc2c(OC)c2c1c1ccc(F)cc1n2C`, the absorption maximum by setting is: (in C1CCCCC1) 395 nm; (in CC#N) 398 nm; (in CO) 396 nm; (in ClCCl) 398 nm.

As to `CCN(CC)c1ccc2c(c1)oc(=O)c1c(=O)oc3cc([N+](=O)[O-])ccc3c12`, the absorption maximum (in CS(C)=O) is recorded as 498 nm and the absorption maximum (in ClCCl) is 494 nm.

`CCCN1c2ccccc2Sc2cc(/C=C\c3cc(=O)oc4cc(C)ccc34)ccc21` registered an absorption maximum (in ClC(Cl)Cl) of 424 nm.

Where the note is “in CCO”, `Cc1c(COC(=O)c2ccc(I)cc2)n2c(OCC(=O)c3ccc(I)cc3)c(C)c(=O)n2c1=O` had an absorption maximum of 387 nm.

Turning to `CCN(CC)c1ccc2cc(/C=C/C(O)=C/C(C)=O)c(=O)oc2c1`, the absorption maximum is, setting by setting: (in CC#N) 456 nm; (in CC(C)=O) 456 nm; (in CCOC(C)=O) 447 nm; (in CO) 458 nm; (in CS(C)=O) 470 nm; (in Cc1ccccc1) 447 nm. The same molecule gave an absorption maximum (in ClC(Cl)Cl) of 455 nm and an absorption maximum (in ClCCl) of 456 nm.

As for `COc1ccc(N(c2ccc(OC)cc2)c2ccc3c4cccc5c(N(c6ccc(OC)cc6)c6ccc(OC)cc6)ccc(c6cccc2c63)c54)cc1`, the absorption maximum runs as follows: (in C1CCCCC1) 519 nm; (in C1CCOC1) 515 nm; (in CC#N) 508 nm; (in Cc1ccccc1) 519 nm; (in ClCCl) 514 nm.

On to `CC(C)c1cccc(C(C)C)c1N1C(=O)c2ccc3c(-c4ccc(C(=O)O)cc4)c4c5ccc6c7c(ccc(c(-c8ccc(C(=O)O)cc8)c4c4ccc(c2c34)C1=O)c75)C(=O)N(c1c(C(C)C)cccc1C(C)C)C6=O`, for which the absorption maximum (in ClCCl) amounted to 622 nm.

Turning to `Cc1cc(C)c(C2=C3C=CC(c4csc5ccccc45)=[N+]3[B-](F)(F)n3c2ccc3-c2csc3ccccc23)c(C)c1`, the absorption maximum (in ClC(Cl)Cl) came out at 581 nm.

For the setting “in ClCCl”, `CCCCCCCCCCC1(CCCCCCCCCC)c2cc(-c3nc4ccccc4s3)ccc2-c2ccc(N3C(=O)c4ccc5c6ccc7c8c(ccc(c9ccc(c4c59)C3=O)c86)C(=O)N(c3ccc4c(c3)C(CCCCCCCCCC)(CCCCCCCCCC)c3cc(-c5nc6ccccc6s5)ccc3-4)C7=O)cc21` registered an absorption maximum of 528 nm.

Consider `COc1ccc(C2=C(c3ccc(OC)cc3)C(C)(C)c3cc(OC)ccc32)cc1`, for which, under “in C1CCCCC1”, the absorption maximum stood at 296 nm.

With `CCCCCn1c2ccccc2c(=O)c2ccccc21`, the absorption maximum (in CS(C)=O) worked out at 403 nm and the absorption maximum (in O) is 394 nm.

With `CCC1(CC)c2cc(B(c3c(C)cc(C)cc3C)c3c(C)cc(C)cc3C)ccc2-c2ccc(N(c3ccccc3)c3ccc4c(c3)C(CC)(CC)c3cc(B(c5c(C)cc(C)cc5C)c5c(C)cc(C)cc5C)ccc3-4)cc21`, the absorption maximum is, setting by setting: (in C1CCOC1) 422 nm; (in CC#N) 417 nm; (in CC(C)=O) 418 nm; (in CCCCCC) 422 nm; (in CN(C)C=O) 422 nm; (in Cc1ccccc1) 424 nm. The molecule also came in with an absorption maximum (in ClC(Cl)Cl) of 422 nm.

On to `CC1=N/C(=C\c2ccc(C#N)c(N(C)C)c2)C(=O)N1C`, for which the absorption maximum is reported as 368 nm (in C1CCOC1), 369 nm (in CC#N) and 362 nm (in CCCCCC).

In turn, `C(=C\c1cc(/C=C/c2ccccc2)nc(/C=C/c2ccccc2)n1)/c1ccccc1` had an absorption maximum (in ClCCl) of 312 nm.

Take `COC1(OC)C2(Cl)c3nc4cc(-c5cccs5)ccc4nc3C1(Cl)C1C[C@H]3[C@@H](CC12)C1(Cl)c2nc4ccc(-c5cccs5)cc4nc2C3(Cl)C1(OC)OC` (stereo partly drawn): the absorption maximum is, setting by setting: (in CC#N) 366 nm; (in CCCCCC) 358 nm; (in CCOC(C)=O) 362 nm; (in CO) 368 nm; (in Cc1ccccc1) 362 nm; (in ClC(Cl)Cl) 366 nm. The absorption maximum (in ClCCl) is listed as 367 nm.

In turn, `c1ccc2cc3c(cc2c1)-c1cccc2c1c-3cc1ccccc12` returned an absorption maximum (in CCCCCCC) of 400 nm.

Under “in CC#N”, `C[n+]1ccn(CCCCc2ccc3c(c2)c2ccccc2n3-c2cc(C#N)c(C#N)cc2-n2c3ccccc3c3cc(CCCCn4cc[n+](C)c4)ccc32)c1` returned an absorption maximum of 368.93 nm.

Regarding `Cc1cc(C)c(B(c2c(C)cc(C)cc2C)c2ccc3ccc4cccc5ccc2c3c45)c(C)c1`, the absorption maximum (in Cc1ccccc1) came out at 399 nm.

As to `Cc1ccc2c(c1)C(C)(C)c1cc(C)ccc1N2c1ccc2c(c1)C(C)(C)c1cc(N3c4ccc(C)cc4C(C)(C)c4cc(C)ccc43)ccc1S2(=O)=O`, under “in ClCCl”, the absorption maximum came out at 370 nm.

`C(#Cc1ccc(-n2c3ccccc3c3ccccc32)cc1)c1ccc(-c2nc(-c3ccc(C#Cc4ccc(-n5c6ccccc6c6ccccc65)cc4)cc3)nc(-c3ccc(C#Cc4ccc(-n5c6ccccc6c6ccccc65)cc4)cc3)n2)cc1` came in with an absorption maximum (in ClCCl) of 361 nm.

Where the note is “in ClC(Cl)Cl”, `CCCCCCCCC1(CCCCCCCC)c2cc3c(cc2-c2sc(-c4ccc(/C=C5\SC(=S)N(CC)C5=O)c5nsnc45)cc21)C(CCCCCCCC)(CCCCCCCC)c1cc(-c2ccc(/C=C4\SC(=S)N(CC)C4=O)c4nsnc24)sc1-3` showed an absorption maximum of 652 nm.

Take `Cc1cc(C)c(C2=C3C=C(/C=C/C(=O)OC(C)(C)C)C=[N+]3[B-](F)(F)n3cccc32)c(C)c1`: the absorption maximum (in ClCCl) turned out to be 538 nm.

On to `Clc1ccc2cc3cccc[n+]3cc2c1`, for which the absorption maximum (in O) is recorded as 400 nm.

With `O=C1c2ccccc2-c2ccc(Nc3nc(Cl)nc(Cl)n3)c3cccc1c23`, the absorption maximum runs as follows: (in CC(C)=O) 405.02 nm; (in CC(C)O) 411.86 nm; (in CCCCOCCCC) 400.96 nm; (in CCOC(C)=O) 403.06 nm; (in CO) 410 nm; (in Cc1ccccc1) 411.02 nm. The absorption maximum is, setting by setting: (in Clc1ccccc1) 410 nm; (in O=C1CCCCC1) 410 nm.

In the case of `CNC(=O)[C@H](C)NC(=O)c1cccc2c1C#Cc1c(N)cccc1OCCCO2`, the absorption maximum by setting is: (in CC#N) 347 nm; (in ClCCl) 345 nm.

For `CC(C)[Si](C#Cc1ccc(C#C[Si](C(C)C)(C(C)C)C(C)C)c2nc3ccccc3nc12)(C(C)C)C(C)C`, the absorption maximum worked out at 440 nm (in CCCCCC) and 439 nm (in ClCCl).

Take `CCc1c(C)[nH]c(C2=[N+]3C(=Cc4c(C)c(CC)c(C)n4[B-]3(F)F)c3ccccc32)c1C`: the absorption maximum is, setting by setting: (in C1CCOC1) 629 nm; (in CC#N) 620 nm; (in CCCCCC) 629 nm; (in CO) 623 nm; (in Cc1ccccc1) 636 nm; (in ClCCl) 629 nm.

As to `c1ccc2cc(-c3c4ccccc4c(-c4ccc(-n5c6ccccc6c6ccccc65)cc4)c4ccccc34)ccc2c1`, the absorption maximum (in ClCCl) worked out at 377 nm.

For `COc1c2ccccc2c(OC)c2c1c1ccc(C(F)(F)F)cc1n2C`, the absorption maximum by setting is: (in C1CCCCC1) 416 nm; (in CC#N) 417 nm; (in CO) 416 nm; (in ClCCl) 419 nm.
